In general, pEC50 refers to the EC50 on a negative log10 scale, so that one unit is a factor of ten.

SMILES strings stand for the structures. pEC50: −log10 of the molar value.

Results on 1 compound are retold here after US7884244B2, “Therapeutic fluoroethylcyano guanidines” (Allergan, Inc., priority 2007, dated 2011).

Holding throughout (format): cell-based
One test deals with T1, alpha2B receptor (Homo sapiens, UniProt P18089).
T1 construct: expressed in transfected cells; host or cells: NIH-3T3 cells
T1 sequence (P18089 1-450): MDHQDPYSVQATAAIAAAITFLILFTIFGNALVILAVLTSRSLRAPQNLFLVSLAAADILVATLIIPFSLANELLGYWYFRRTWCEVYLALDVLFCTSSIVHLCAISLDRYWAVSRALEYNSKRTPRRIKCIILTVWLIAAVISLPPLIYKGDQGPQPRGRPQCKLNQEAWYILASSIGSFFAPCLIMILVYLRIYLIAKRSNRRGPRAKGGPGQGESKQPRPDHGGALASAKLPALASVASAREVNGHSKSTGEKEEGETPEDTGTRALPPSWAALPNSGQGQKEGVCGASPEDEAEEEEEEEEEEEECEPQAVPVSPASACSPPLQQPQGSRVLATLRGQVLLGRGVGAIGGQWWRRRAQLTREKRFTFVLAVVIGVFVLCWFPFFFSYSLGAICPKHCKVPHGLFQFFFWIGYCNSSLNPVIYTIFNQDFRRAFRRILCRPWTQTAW
As to the kind of experiment: Receptor Selection and Amplification Technology (RSAT) assay, alpha2B. The protocol: (§1) The RSAT assay measures a receptor-mediated loss of contact inhibition that results in selective proliferation of receptor-containing cells in a mixed population of confluent cells. The increase in cell number is assessed with an appropriate transfected marker gene such as […]-galactosidase, the activity of which can be easily measured in a 96-well format. Receptors that activate the G protein, Gq, elicit this response. Alpha2 receptors, which normally couple to Gi, activate the RSAT response when coexpressed with a hybrid Gq protein that has a Gi receptor recognition domain, called Gq/i5.
(§2) NIH-3T3 cells are plated at a density of 2×10^6 cells in 15 cm dishes and maintained in Dulbecco's modified Eagle's medium supplemented with 10% calf serum. One day later, cells are cotransfected by calcium phosphate precipitation with mammalian expression plasmids encoding p-SV-[…]-galactosidase (5-10 μg), receptor (1-2 μg) and G protein (1-2 μg). 40 μg salmon sperm DNA may also be included in the transfection mixture. Fresh media is added on the following day and 1-2 days later, cells are harvested and frozen in 50 assay aliquots. Cells are thawed and 100 μl added to 100 μl aliquots of various concentrations of drugs in triplicate in 96-well dishes. Incubations continue 72-96 hr at 37° C. After washing with phosphate-buffered saline, […]-galactosidase enzyme activity is determined by adding 200 μl of the chromogenic substrate (consisting of 3.5 mM o-nitrophenyl-[…]-D-galactopyranoside and 0.5% nonidet P-40 in phosphate buffered saline), incubating overnight at 30° C. and measuring optical density at 420 nm. The absorbance is a measure of enzyme activity, which depends on cell number and reflects a receptor-mediated cell proliferation. The efficacy or intrinsic activity is calculated as a ratio of the maximal effect of the drug to the maximal effect of a standard full agonist for each receptor subtype. Brimonidine, also called UK14304, the chemical structure of which is shown below, is used as the standard agonist for the alpha2A, alpha2B and alpha2C receptors. The EC50 is the concentration at which the drug effect is half of its maximal effect.
(§3) The results of the RSAT assay with several exemplary compounds of the invention are disclosed in Table 1 above together with the chemical formulas of these exemplary compounds. EC50 values are nanomolar. NA stands for “not active” at concentrations less than 10 micromolar. IA stands for “intrinsic activity.”

The target of another test is T2, alpha2A receptor (Homo sapiens, UniProt P08913).
T2 construct: expressed in transfected cells; host or cells: NIH-3T3 cells
T2 sequence (P08913 1-465): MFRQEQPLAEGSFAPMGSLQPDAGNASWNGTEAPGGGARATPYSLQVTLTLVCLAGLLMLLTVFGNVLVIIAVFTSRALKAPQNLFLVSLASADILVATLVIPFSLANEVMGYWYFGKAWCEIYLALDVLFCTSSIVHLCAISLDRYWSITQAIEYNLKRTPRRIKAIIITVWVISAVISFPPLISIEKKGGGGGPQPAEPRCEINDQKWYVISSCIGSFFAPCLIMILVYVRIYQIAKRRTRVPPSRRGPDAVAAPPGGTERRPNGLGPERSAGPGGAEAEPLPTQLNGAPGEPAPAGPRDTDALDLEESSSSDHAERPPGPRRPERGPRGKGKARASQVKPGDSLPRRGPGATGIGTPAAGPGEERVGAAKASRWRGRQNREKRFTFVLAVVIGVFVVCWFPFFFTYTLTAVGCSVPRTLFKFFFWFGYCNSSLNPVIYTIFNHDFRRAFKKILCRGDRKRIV
As to the kind of experiment: Receptor Selection and Amplification Technology (RSAT) assay, alpha2A. The method, then: as §1, §2, §3

A further test has as its target T3, alpha2C receptor (Homo sapiens, UniProt P18825).
T3 construct: expressed in transfected cells; host or cells: NIH-3T3 cells
T3 sequence (P18825 1-462): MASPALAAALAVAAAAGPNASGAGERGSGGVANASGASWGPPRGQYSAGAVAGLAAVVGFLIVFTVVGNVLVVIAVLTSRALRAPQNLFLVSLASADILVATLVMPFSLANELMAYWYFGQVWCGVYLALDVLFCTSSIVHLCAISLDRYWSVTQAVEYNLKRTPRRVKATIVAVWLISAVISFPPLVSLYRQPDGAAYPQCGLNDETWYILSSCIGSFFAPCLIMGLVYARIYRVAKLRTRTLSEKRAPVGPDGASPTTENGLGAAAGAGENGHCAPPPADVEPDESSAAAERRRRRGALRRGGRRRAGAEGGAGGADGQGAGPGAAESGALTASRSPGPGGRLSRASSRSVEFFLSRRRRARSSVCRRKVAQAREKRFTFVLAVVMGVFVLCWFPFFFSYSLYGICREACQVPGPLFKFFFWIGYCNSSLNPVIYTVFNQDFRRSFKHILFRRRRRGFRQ
As to the kind of experiment: Receptor Selection and Amplification Technology (RSAT) assay, alpha2C. The protocol:
as §1, §2, §3

Where [1] appears, read: ratio of maximal effect of drug to maximal effect of standard full agonist brimonidine (UK14304).

With `Cc1cccc2c1CC[C@@H]2N/C(=N\C#N)NCCF`, the negative-log EC50 (pEC50) at alpha2B receptor (RSAT, transfected NIH-3T3 cells with Gq/i5, not active = not active at concentrations less than 10 micromolar, read-out: Alpha 2B EC50) was 7.22; on alpha2A receptor (RSAT, transfected NIH-3T3 cells with Gq/i5, not active = not active at concentrations less than 10 micromolar, read-out: Alpha 2A EC50) it was 6.12; at alpha2C receptor (RSAT, transfected NIH-3T3 cells with Gq/i5, not active = not active at concentrations less than 10 micromolar, read-out: Alpha 2C EC50) it was 5.82. Moreover, at alpha2B receptor (setting [1]), the “Alpha 2B IA (intrinsic activity)” value came out at 1.09. Further, the “Alpha 2A IA (intrinsic activity)” value on alpha2A receptor (setting [1]) came out at 0.35. Moreover, the “Alpha 2C IA (intrinsic activity)” value on alpha2C receptor (setting [1]) is on record as 0.46.
